# Measurements: paper doi:10.1101/2025.03.23.644840v2 (biorxiv, 2025)
# Like-named read-outs stand apart in the source and are kept apart here.
# Experiments:
# Experiment in all cases: isothermal titration calorimetry
# Anc1 = assay type: binding, synthetic construct; conditions: 25 °C; 20 mM HEPES, 150 mM NaCl, 2% glycerol, pH 8; 1:1 model
# Anc4 = assay type: binding, synthetic construct; conditions: 25 °C; 20 mM HEPES, 150 mM NaCl, 2% glycerol, pH 8; 1:1 model
# ecLacI = ecLacI (Escherichia coli, UniProt P03023); assay type: binding
# ΔAnc1 = molecular target: ΔAnc1; parameters: species or system synthetic construct; conditions: 25 °C; 20 mM HEPES, 150 mM NaCl, 2% glycerol, pH 8; 1:1 model
# ΔAnc4 = molecular target: ΔAnc4; parameters: species or system synthetic construct; conditions: 25 °C; 20 mM HEPES, 150 mM NaCl, 2% glycerol, pH 8; 1:1 model
# Anc3 = assay type: binding, synthetic construct; conditions: 25 °C; 20 mM HEPES, 150 mM NaCl, 2% glycerol, pH 8; 1:1 model
# Anc2 = assay type: binding, synthetic construct; conditions: 25 °C; 20 mM HEPES, 150 mM NaCl, 2% glycerol, pH 8; 1:1 model
# Chain of ecLacI (P03023 whole entry): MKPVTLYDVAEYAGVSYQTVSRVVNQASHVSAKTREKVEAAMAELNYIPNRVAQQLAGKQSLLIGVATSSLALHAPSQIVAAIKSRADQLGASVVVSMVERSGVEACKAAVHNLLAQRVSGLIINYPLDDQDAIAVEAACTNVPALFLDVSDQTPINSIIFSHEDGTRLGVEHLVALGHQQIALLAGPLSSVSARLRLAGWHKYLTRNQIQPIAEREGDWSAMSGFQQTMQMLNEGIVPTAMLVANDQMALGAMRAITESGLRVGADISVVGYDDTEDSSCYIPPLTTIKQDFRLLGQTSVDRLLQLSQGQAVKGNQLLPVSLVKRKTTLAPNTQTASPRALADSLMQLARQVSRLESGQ
Kd (Anc1) [µM],Kd (Anc4) [µM],"Kd (ecLacI; 25 °C, 20 mM HEPES, 150 mM NaCl, 2% glycerol, pH 8, 1:1 model) [µM]",Kd (ΔAnc1) [µM],Kd (ΔAnc4) [µM],Kd (Anc3) [µM],Kd (ecLacI) [µM],Kd (Anc2) [µM],SMILES
127,15000,37000,420,,,,,C[C@H]1OC(O)[C@H](O)[C@@H](O)[C@H]1O (stereo partly drawn) [D-fucose]
4000,550,,,430,2500,306,2200,CO[C@@H]1O[C@H](CO)[C@H](O)[C@H](O)[C@H]1O [BMDG]
